Patent US8329918B2, “Selective alpha 2B/2C agonists” (priority 2009, dated 2012)
Where two headings read alike, the source gives them in different places.

What was measured:
Assay type in all cases: cell-based
alpha2C receptor = target: T1, alpha2C receptor (Homo sapiens, UniProt P18825); test: RSAT assay, alpha 2C; details: for (rel. efficacy) Alpha 2C: ratio of maximal effect to standard full agonist brimonidine (UK14304)
T1 construct: expressed in transfected cells; host or cells: NIH-3T3
T1 sequence (P18825 1-462): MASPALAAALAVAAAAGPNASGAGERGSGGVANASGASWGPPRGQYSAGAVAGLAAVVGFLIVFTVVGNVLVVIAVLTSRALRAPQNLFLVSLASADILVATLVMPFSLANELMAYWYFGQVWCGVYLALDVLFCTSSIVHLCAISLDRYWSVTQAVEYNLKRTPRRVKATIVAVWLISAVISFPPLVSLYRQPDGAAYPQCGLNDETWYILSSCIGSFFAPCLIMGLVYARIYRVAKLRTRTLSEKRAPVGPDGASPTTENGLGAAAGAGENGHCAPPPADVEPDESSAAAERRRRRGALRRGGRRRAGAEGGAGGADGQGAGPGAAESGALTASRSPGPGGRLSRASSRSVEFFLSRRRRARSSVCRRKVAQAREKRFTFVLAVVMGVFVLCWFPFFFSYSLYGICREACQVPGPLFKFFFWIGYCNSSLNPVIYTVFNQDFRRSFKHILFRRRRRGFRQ
Experimental: (§1) Selected presently described compounds were synthesized and tested for alpha adrenergic activity using the Receptor Selection and Amplification Technology (RSAT) assay. Cells expressing each of the alpha-2-adrenergic receptors alone were incubated with various compounds and a receptor-mediated growth response was measured. The compound's activity is expressed as its relative efficacy compared to a standard full agonist.
(§2) The RSAT assay measures a receptor-mediated loss of contact inhibition that results in selective proliferation of receptor-containing cells in a mixed population of confluent cells. The increase in cell number is assessed with an appropriate transfected marker gene such as β-galactosidase, the activity of which can be easily measured in a 96-well format. Receptors that activate the G protein, Gq, elicit this response. Alpha2 receptors, which normally couple to Gi, activate the RSAT response when coexpressed with a hybrid Gq protein that has a Gi receptor recognition domain, called Gq/i5.
(§3) NIH-3T3 cells are plated at a density of 2×10^6 cells in 15 cm dishes and maintained in Dulbecco's modified Eagle's medium supplemented with 10% calf serum. One day later, cells are cotransfected by calcium phosphate precipitation with mammalian expression plasmids encoding p-SV-β-galactosidase (5-10 μg), receptor (1-2 μg) and G protein (1-2 μg). 40 μg salmon sperm DNA may also be included in the transfection mixture. Fresh media is added on the following day and 1-2 days later, cells are harvested and frozen in 50 assay aliquots. Cells are thawed and […] added to […] aliquots of various concentrations of drugs in triplicate in 96-well dishes. Incubations continue 72-96 hr at 37° C. After washing with phosphatebuffered saline, β-galactosidase enzyme activity is determined by adding 200 μl of the chromogenic substrate (consisting of 3.5 mM o-nitrophenyl-β-D-galactopyranoside and 0.5% nonidet P-40 in phosphate buffered saline), incubating overnight at 30° C. and measuring optical density at 420 nm. The absorbance is a measure of enzyme activity, which depends on cell number and reflects a receptor-mediated cell proliferation. The EC50 and maximal effect of each drug at each alpha2 receptor is determined. The efficacy or intrinsic activity is calculated as a ratio of the maximal effect of the drug to the maximal effect of a standard full agonist for each receptor subtype. Brimonidine, also called UK14304, is used as the standard agonist for the alpha2A, alpha2B, and alpha2C receptors.
(§4) The compounds activity is expressed as its relative efficacy compared to a standard full agonist.

alpha2B receptor = target: T2, alpha2B receptor (Homo sapiens, UniProt P18089); test: RSAT assay, alpha 2B; details: for (rel. efficacy) Alpha 2B: ratio of maximal effect to standard full agonist brimonidine (UK14304)
T2 construct: expressed in transfected cells; host or cells: NIH-3T3
T2 sequence (P18089 1-450): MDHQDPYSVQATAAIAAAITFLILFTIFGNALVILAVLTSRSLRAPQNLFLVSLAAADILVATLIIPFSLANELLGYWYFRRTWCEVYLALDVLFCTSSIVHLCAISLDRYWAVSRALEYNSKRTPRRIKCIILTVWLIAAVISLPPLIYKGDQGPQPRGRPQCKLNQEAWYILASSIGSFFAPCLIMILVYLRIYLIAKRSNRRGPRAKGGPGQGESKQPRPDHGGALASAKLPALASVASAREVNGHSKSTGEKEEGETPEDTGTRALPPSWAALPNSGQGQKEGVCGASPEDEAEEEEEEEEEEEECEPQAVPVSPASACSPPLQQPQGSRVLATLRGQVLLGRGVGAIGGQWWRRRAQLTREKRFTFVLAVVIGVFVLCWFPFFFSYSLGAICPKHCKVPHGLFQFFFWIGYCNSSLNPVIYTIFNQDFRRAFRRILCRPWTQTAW
Experimental: as §1, §2, §3, §4

alpha2A receptor = target: T3, alpha2A receptor (Homo sapiens, UniProt P08913); test: RSAT assay, alpha 2A
T3 sequence (P08913 1-465): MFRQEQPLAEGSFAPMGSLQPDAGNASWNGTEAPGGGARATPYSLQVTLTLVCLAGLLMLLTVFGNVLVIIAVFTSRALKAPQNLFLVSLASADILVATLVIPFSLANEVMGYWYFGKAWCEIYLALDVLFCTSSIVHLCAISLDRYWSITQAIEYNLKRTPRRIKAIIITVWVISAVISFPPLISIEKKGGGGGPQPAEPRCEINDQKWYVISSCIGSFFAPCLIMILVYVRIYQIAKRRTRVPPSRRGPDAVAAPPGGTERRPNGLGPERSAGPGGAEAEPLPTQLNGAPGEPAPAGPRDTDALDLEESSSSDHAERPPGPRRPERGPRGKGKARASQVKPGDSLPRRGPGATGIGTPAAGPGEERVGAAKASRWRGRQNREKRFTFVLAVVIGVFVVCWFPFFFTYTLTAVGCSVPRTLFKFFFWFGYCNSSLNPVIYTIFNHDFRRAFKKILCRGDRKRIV
Experimental: as §1, §2, §3, §4

[1] = RSAT, NIH-3T3 cells, NA = not active, read-out: EC50 (nM) Alpha 2C
[2] = RSAT, NIH-3T3 cells, NA = not active, read-out: EC50 (nM) Alpha 2B

COc1c(C)cccc1CNC1=NCCS1
EC50 (alpha2C receptor): 187 nM
(rel. efficacy) Alpha 2C (alpha2C receptor; RSAT): 0.97
EC50 (alpha2B receptor): 27 nM
(rel. efficacy) Alpha 2B (alpha2B receptor; RSAT): 0.98
EC50 (alpha2A receptor): 481 nM
(rel. efficacy) Alpha 2A (alpha2A receptor; RSAT, ratio of maximal effect to standard full agonist brimonidine (UK14304)): 0.57

Brc1cccc(CNC2=NCCO2)c1
EC50 (alpha2C receptor): 83 nM
(rel. efficacy) Alpha 2C (alpha2C receptor; RSAT): 0.59
EC50 (alpha2B receptor): 12 nM
(rel. efficacy) Alpha 2B (alpha2B receptor; RSAT): 1.0

Clc1cccc(CNC2=NCCS2)c1
EC50 (alpha2C receptor; [1]): 504 nM
(rel. efficacy) Alpha 2C (alpha2C receptor; RSAT): 0.48
EC50 (alpha2B receptor): 42 nM
(rel. efficacy) Alpha 2B (alpha2B receptor; RSAT): 0.99

COc1ccccc1CNC1=NCCS1 [drawing 16]
EC50 (alpha2C receptor): 1550 nM
(rel. efficacy) Alpha 2C (alpha2C receptor; RSAT): 0.74

Cc1cccc(CNC2=NCCO2)c1C
EC50 (alpha2C receptor): 11 nM
(rel. efficacy) Alpha 2C (alpha2C receptor; RSAT): 0.83
EC50 (alpha2B receptor): 2 nM
(rel. efficacy) Alpha 2B (alpha2B receptor; RSAT): 1.09

Cc1c(Cl)cccc1CNC1=NCCS1
EC50 (alpha2C receptor): 401 nM
(rel. efficacy) Alpha 2C (alpha2C receptor; RSAT): 0.72
EC50 (alpha2B receptor): 40 nM
(rel. efficacy) Alpha 2B (alpha2B receptor; RSAT): 0.99

Cc1cc(Br)c(F)c(CNC2=NCCS2)c1
EC50 (alpha2C receptor; [1]): 803 nM
(rel. efficacy) Alpha 2C (alpha2C receptor; RSAT): 0.62
EC50 (alpha2B receptor; [2]): 168 nM
(rel. efficacy) Alpha 2B (alpha2B receptor; RSAT): 1.04

Cc1cc(Cl)cc(CNC2=NCCS2)c1F
EC50 (alpha2C receptor): 1250 nM
(rel. efficacy) Alpha 2C (alpha2C receptor; RSAT): 0.51
EC50 (alpha2B receptor): 351 nM
(rel. efficacy) Alpha 2B (alpha2B receptor; RSAT): 0.96

Fc1ccc(Cl)c(F)c1CNC1=NCCO1
EC50 (alpha2C receptor; [1]): 356 nM
(rel. efficacy) Alpha 2C (alpha2C receptor; RSAT): 0.52
EC50 (alpha2B receptor): 57 nM
(rel. efficacy) Alpha 2B (alpha2B receptor; RSAT): 0.93

Fc1ccc(Br)cc1CNC1=NCCO1
EC50 (alpha2C receptor; [1]): 186 nM
(rel. efficacy) Alpha 2C (alpha2C receptor; RSAT): 0.63
EC50 (alpha2B receptor): 18 nM
(rel. efficacy) Alpha 2B (alpha2B receptor; RSAT): 0.89

Clc1ccc(Br)cc1CNC1=NCCS1
EC50 (alpha2C receptor; [1]): 1330 nM
(rel. efficacy) Alpha 2C (alpha2C receptor; RSAT): 0.56
EC50 (alpha2B receptor; [2]): 296 nM
(rel. efficacy) Alpha 2B (alpha2B receptor; RSAT): 0.9

Fc1c(Cl)cccc1CNC1=NCCO1 [drawing 19]
EC50 (alpha2C receptor): 22 nM
(rel. efficacy) Alpha 2C (alpha2C receptor; RSAT): 0.85
EC50 (alpha2B receptor): 10 nM
(rel. efficacy) Alpha 2B (alpha2B receptor; RSAT): 1.09

Fc1ccc(Br)c(CNC2=NCCO2)c1
EC50 (alpha2C receptor): 29 nM
(rel. efficacy) Alpha 2C (alpha2C receptor; RSAT): 0.71
EC50 (alpha2B receptor): 4 nM
(rel. efficacy) Alpha 2B (alpha2B receptor; RSAT): 1.05

FC(F)(F)c1cccc(CNC2=NCCS2)c1Cl
EC50 (alpha2C receptor; [1]): 854 nM
(rel. efficacy) Alpha 2C (alpha2C receptor; RSAT): 0.46
EC50 (alpha2B receptor; [2]): 101 nM
(rel. efficacy) Alpha 2B (alpha2B receptor; RSAT): 1.08

Fc1c(CNC2=NCCS2)cccc1C(F)(F)F
EC50 (alpha2C receptor): 1430 nM
(rel. efficacy) Alpha 2C (alpha2C receptor; RSAT): 0.73
EC50 (alpha2B receptor): 184 nM
(rel. efficacy) Alpha 2B (alpha2B receptor; RSAT): 0.99

Fc1ccc(Br)c(CNC2=NCCS2)c1
EC50 (alpha2C receptor): 452 nM
(rel. efficacy) Alpha 2C (alpha2C receptor; RSAT): 0.67
EC50 (alpha2B receptor): 73 nM
(rel. efficacy) Alpha 2B (alpha2B receptor; RSAT): 0.97

FC(F)Oc1ccccc1CNC1=NCCO1
EC50 (alpha2C receptor): 13 nM
(rel. efficacy) Alpha 2C (alpha2C receptor; RSAT): 0.74
EC50 (alpha2B receptor): 34 nM
(rel. efficacy) Alpha 2B (alpha2B receptor; RSAT): 0.83

Brc1cccc(CNC2=NCCS2)c1
EC50 (alpha2C receptor): 459 nM
(rel. efficacy) Alpha 2C (alpha2C receptor; RSAT): 0.5
EC50 (alpha2B receptor): 75 nM
(rel. efficacy) Alpha 2B (alpha2B receptor; RSAT): 0.84

FC(F)(F)c1ccccc1CNC1=NCCO1
EC50 (alpha2C receptor): 21 nM
(rel. efficacy) Alpha 2C (alpha2C receptor; RSAT): 0.8
EC50 (alpha2B receptor): 31 nM
(rel. efficacy) Alpha 2B (alpha2B receptor; RSAT): 0.97
